Assay results reported in patent US9493485B2, “Spirocyclic dihydro-thiazine and dihydro-oxazine BACE inhibitors, and compositions and uses thereof” (Imago Pharmaceuticals, Inc., priority 2012, dated 2016).
Like-named read-outs stand apart in the source and are kept apart here.

How the values were obtained:
[1] = target: T1, BACE1 (Homo sapiens (Human), UniProt P56817); assay: BACE1 AlphaScreen assay (displacement of biotinylated BACE1 binding site probe); conditions: read-out: BACE1 AS IC50
[2] = target: Cathepsin D (Homo sapiens (Human), UniProt P07339); assay: Cathepsin D FP assay; assay type: biochemical; conditions: pH 4.5, read-out: CatD FP IC50
Chain of Cathepsin D (P07339 65-412, species assumed): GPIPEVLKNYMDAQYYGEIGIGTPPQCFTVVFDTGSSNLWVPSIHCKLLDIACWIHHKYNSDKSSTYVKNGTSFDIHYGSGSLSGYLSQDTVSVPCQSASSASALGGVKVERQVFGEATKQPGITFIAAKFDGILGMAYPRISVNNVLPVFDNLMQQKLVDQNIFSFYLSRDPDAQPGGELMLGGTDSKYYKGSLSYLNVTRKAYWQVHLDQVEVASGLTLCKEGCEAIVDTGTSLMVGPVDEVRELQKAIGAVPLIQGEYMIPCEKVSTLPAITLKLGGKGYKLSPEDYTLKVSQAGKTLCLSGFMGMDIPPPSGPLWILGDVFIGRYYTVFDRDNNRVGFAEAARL
Protocol: BACE1 activity can be assessed in an AlphaScreen® assay. Compounds to be assessed (e.g. compounds as described in the above examples) are serially diluted 1:4 in DMSO, then plated by diluting 10 μL of compound with 40 μl of assay buffer (1×PBS, 0.01% Tween-20, pH 7.0, 0.05% BSA). The diluted compound is transferred (4 μL per well) to a 386 well assay plate and 4 μL of BACE1 enzyme ([…]) is added and incubated for 15 minutes. This assay uses a probe that is a BACE1 binding sight ligand linked to biotin, which can be displaced by test compound dependent on compound binding affinity. This of biotinylated probe (4 μL) is added and incubated for 1 hour, followed with 4 μL of donor and acceptor bead mixture and incubated for 2 hours. The fluorescent signal is read on a plate reader and the value as a function of compound concentration is used to determine the IC50. Compounds are also assessed for BACE1 and Cathepsin D activity using an FP Assay. Compounds to be assessed (e.g. compounds as described in the above examples) are serially diluted 1:3 with DMSO and each concentration point is transferred to a 96 well plate, 6 μL per well, followed by addition of 194 μL of assay buffer (100 mM sodium acetate, pH 4.5 with 0.001% Tween-20). A 10 μL compound sample from this plate is transferred to a well of a 384 well plate and combined with 10 μL per well of BACE1 enzyme (0.3 nM in assay buffer) or Cathepsin D enzyme (1.8 nM in assay buffer) and the plate is incubated at room temperature for 30 minutes.

[3] = target: T1, BACE1; assay: BACE1 FP assay; assay type: biochemical; conditions: pH 4.5
[4] = test system: BACE1 inhibition in HEKp293 cells transfected with APP751 gene (SWE293); assay: SWE293 cellular assay: reduction of Aβ peptide production, ELISA; assay type: cell-based; conditions: Homo sapiens, read-out: SWE293 ED50
How it was run: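 SWE293 cells (HEK293 carrying APP751), plated overnight at 37 °C, received 1:3 serially diluted compound for two successive 2 h exposures with washes between. Medium Aβ was captured on 266-antibody plates, detected with 3D6 antibody and streptavidin-AP fluorescent substrate, and quantified against an Aβ-40 standard curve.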

[5] = dose at which Aβ level is reduced by 50%, HEKp293 SWE293 cells

T1 sequence (P56817 46-501): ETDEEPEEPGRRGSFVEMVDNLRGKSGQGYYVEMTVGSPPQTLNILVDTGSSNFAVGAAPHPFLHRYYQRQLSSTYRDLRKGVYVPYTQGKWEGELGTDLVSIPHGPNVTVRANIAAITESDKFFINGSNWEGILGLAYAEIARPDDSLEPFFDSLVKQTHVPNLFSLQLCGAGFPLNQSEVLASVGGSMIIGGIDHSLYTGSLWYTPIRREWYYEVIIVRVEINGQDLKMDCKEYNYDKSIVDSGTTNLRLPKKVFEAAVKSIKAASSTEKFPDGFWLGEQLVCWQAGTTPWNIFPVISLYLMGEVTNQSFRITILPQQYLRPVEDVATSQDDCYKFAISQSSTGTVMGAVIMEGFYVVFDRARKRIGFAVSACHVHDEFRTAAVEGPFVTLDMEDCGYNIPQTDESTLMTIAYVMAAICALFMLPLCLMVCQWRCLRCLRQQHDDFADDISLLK

Compound | IC50 [1] [µM] | IC50 [2] [µM] | IC50 [3] [µM] | IC50 [4, 5] [µM] | IC50 [4] [µM]
C[C@@]1(c2cc(NC(=O)c3ccc(Br)cn3)ccc2F)CC2(CCC(F)(F)CC2)OC(N)=N1 [Compound 9-136, (S)—N-(3-(2-amino-9,9-difluoro-4-methyl-1-oxa-3-azaspiro[5.5]undec-2-en-4-yl)-4-fluorophenyl)-5-bromopicolinamide] | 0.007 | > 30 | 0.05 |  | 0.0089
CC#Cc1cncc(-c2csc(C3(C)N=C(N)OC4(CCOCC4)C3(F)F)c2)c1 (centres unmarked) [Compound 8-114, 5,5-difluoro-4-methyl-4-(4-(5-(prop-1-ynyl)pyridin-3-yl)thiophen-2-yl)-1,9-dioxa-3-azaspiro[5.5]undec-2-en-2-amine] | 0.221 | 5.54 | 0.626 | 2.12 | 
C[C@]1(c2cc(NC(=O)c3ccc(F)cn3)ccc2F)CC2(CCC2)SC(N)=N1 [Compound 9-143, (R)—N-(3-(6-amino-8-methyl-5-thia-7-azaspiro[3.5]non-6-en-8-yl)-4-fluorophenyl)-5-fluoropicolinamide] | > 7.5 | > 30 | 51.8 | 6.22 | 
C[C@]1(c2cc(NC(=O)c3ccc(F)cn3)ccc2F)CC2(CCC2)OC(N)=N1 [Compound 9-127, (R)—N-(3-(6-amino-8-methyl-5-oxa-7-azaspiro[3.5]non-6-en-8-yl)-4-fluorophenyl)-5-fluoropicolinamide] | 1.31 | > 30 | 7.44 | > 10 | 
C[C@@]1(c2cc(NC(=O)c3ccc(Cl)cn3)ccc2F)CC2(CCOCC2)OC(N)=N1 [Compound 9-122, (S)—N-(3-(2-amino-4-methyl-1,9-dioxa-3-azaspiro[5.5]undec-2-en-4-yl)-4-fluorophenyl)-5-chloropicolinamide] | 0.012 | > 30 | 0.059 |  | 0.004
CC1(c2cc(-c3cncnc3)ccc2F)CC2(CCOCC2)OC(N)=N1 (centres unmarked) [Compound 8-106, 4-(2-fluoro-5-(pyrimidin-5-yl)phenyl)-4-methyl-1,9-dioxa-3-azaspiro[5.5]undec-2-en-2-amine] | 0.569 | > 30 | 12.6 | 0.673 | 

More lines, in order of falling IC50 [1], values ahead:

IC50 [1] [µM] | IC50 [2] [µM] | IC50 [3] [µM] | Compound | IC50 [4, 5] [µM] | IC50 [4] [µM]
0.068 | 6.29 | 1.16 | CC#Cc1cncc(-c2csc(C3(C)CC4(CCC(F)(F)CC4)OC(N)=N3)c2)c1 (centres unmarked) [Compound 8-109, 9,9-difluoro-4-methyl-4-(4-(5-(prop-1-ynyl)pyridin-3-yl)thiophen-2-yl)-1-oxa-3-azaspiro[5.5]undec-2-en-2-amine] | 0.621 | 
0.03 | 7.92 | 1.36 | CC#Cc1cncc(-c2csc(C3(C)CC4(CCC4)OC(N)=N3)c2)c1 (centres unmarked) [Compound 8-103, 8-methyl-8-(4-(5-(prop-1-ynyl)pyridin-3-yl)thiophen-2-yl)-5-oxa-7-azaspiro[3.5]non-6-en-6-amine] | 0.582 | 
0.015 | 19.6 | 0.094 | CC1(c2cc(NC(=O)c3ccc(Cl)cn3)ccc2F)N=C(N)OC2(CCOCC2)C1(F)F (centres unmarked) [Compound 9-158, N-(3-(2-amino-5,5-difluoro-4-methyl-1,9-dioxa-3-azaspiro[5.5]undec-2-en-4-yl)-4-fluorophenyl)-5-chloropicolinamide] | 0.182 | 
0.008 | 15.6 | 0.029 | CC1(c2cc(NC(=O)c3ccc(F)cn3)ccc2F)CC2(CCOCC2)SC(N)=N1 (centres unmarked) [Compound 9-147, N-(3-(2-amino-4-methyl-9-oxa-1-thia-3-azaspiro[5.5]undec-2-en-4-yl)-4-fluorophenyl)-5-fluoropicolinamide] | < 0.004 | 
0.0057 | > 30 | 0.087 | C[C@@]1(c2cc(NC(=O)c3ncc(Cl)cc3F)ccc2F)CC2(CCC2)OC(N)=N1 [Compound 9-131, (S)—N-(3-(6-amino-8-methyl-5-oxa-7-azaspiro[3.5]non-6-en-8-yl)-4-fluorophenyl)-5-chloro-3-fluoropicolinamide] | 0.046 | 
